Molecular target: T1, soluble epoxide hydrolase (sEH) (Homo sapiens, UniProt P34913)
T1 construct: purchased Cayman 10011669
T1 sequence (P34913 1-555): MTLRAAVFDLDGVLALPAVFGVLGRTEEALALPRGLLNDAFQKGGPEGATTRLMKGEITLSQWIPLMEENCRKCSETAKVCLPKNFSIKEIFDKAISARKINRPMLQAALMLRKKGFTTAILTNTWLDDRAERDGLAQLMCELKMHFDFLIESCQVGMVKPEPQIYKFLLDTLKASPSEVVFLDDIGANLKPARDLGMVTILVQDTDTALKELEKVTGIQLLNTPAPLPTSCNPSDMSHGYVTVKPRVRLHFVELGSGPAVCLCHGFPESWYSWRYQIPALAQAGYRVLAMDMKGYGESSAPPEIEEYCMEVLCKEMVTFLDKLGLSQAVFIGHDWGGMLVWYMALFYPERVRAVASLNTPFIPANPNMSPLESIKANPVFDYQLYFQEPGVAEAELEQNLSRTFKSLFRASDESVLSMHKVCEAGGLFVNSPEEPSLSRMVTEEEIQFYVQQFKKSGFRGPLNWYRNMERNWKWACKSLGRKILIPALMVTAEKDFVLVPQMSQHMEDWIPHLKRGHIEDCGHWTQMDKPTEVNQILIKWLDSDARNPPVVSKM
Experiment: sEH inhibition assay (PHOME fluorescent substrate)
Type: biochemical
Details: 37 °C, mean ± SEM; for inhibition at 100 µM: 100 μM compound, after 40 min, read-out: Inhibition of compounds on sEH, 100 μM (%); for IC50: tested three times, read-out: Inhibition of compounds on sEH, IC50
Procedure: The sEH assay was performed as described previously, with minor modifications. For determining inhibitory activity, 130 µL of ∼83 µg/mL sEH in 25 mM bis-Tris–HCl buffer (pH 7.0) containing 0.1% BSA was added to either 20 µL of inhibitor dissolved in MeOH, or MeOH. Next, 50 µL of the 10 µM substrate (PHOME) was added to each mixture and incubated at 37 °C to allow for sEH hydrolysis.
Inhibitory activity was calculated using the following equations: (1) Inhibitoryactivityrate(%)=[(ΔC–ΔI)/ΔC]×100 where ΔC and ΔI are the intensity of the control and inhibitor, respectively, after 40 min. (2) y=y0+(a×x/b+x) where y0 is the minimum value of the y-axis, a is the difference between the maximum and minimum values, and b is the x value at 50% of the a value.
The results were analysed using Sigma Plot (Systat Software Inc., San Jose, CS).

Row | Compound | inhibition at 100 µM | IC50
1 | O=C1CC(c2ccc(O)cc2)Oc2cc(O)c(C3OC(CO)C(O)C(O)C3O)c(O)c21 [Compound 3, naringenin-6-C-β-D-glucopyranoside] | < 38% | –
2 | OCc1ccc(O)cn1 [Compound 4, 6-hydroxymethyl-3-pyridinol] | 65.9 ± 0.8% | 26.3 ± 4.5 µM
3 | Oc1cc(O)c2c(c1)O[C@H](c1ccc(O)c(O)c1)[C@@H](O)C2 [Compound 5, (+)-catechin] | < 38% | –
4 | COc1cc(C2Oc3c(OC)cc(CCCO)cc3C2CO[C@@H]2OC[C@@H](O)[C@H](O)[C@H]2O)ccc1O (stereo partly drawn) [Compound 8, 2,3-dihydro-2–(4-hydroxy-3-methoxyphenyl)-5–(3-hydroxypropyl)-7-methoxy-3-benzofuranylmethyl β-D-xylopyranoside] | 64.8 ± 1.4% | 36.9 ± 2.6 µM
5 | O=C(O)c1ccc(O)c(O)c1 [Compound 9, protocatechuic acid] | < 38% | –

More lines, now with the values ahead:

Row | inhibition at 100 µM | IC50 | Compound
6 | 59.4 ± 2.5% | 14.5 ± 0.5 µM | O=C1OC2Cc3c(O)cc(OC4OCC(O)(CO)C4O)cc3OC2c2ccc(O)c(O)c21 [Compound 1, (6aS,12aR)-3,4,8-trihydroxy-6a-7-dihydroisochromeno[4,3-b]chromen-5(12aH)-one-10-O-β-apiofuranoside]
7 | 91.8 ± 4.5% | 11.4 ± 2.3 µM | O=C1CC(c2ccccc2)Oc2cc(O)c(C3OC(CO)C(O)C(O)C3O)c(O)c21 [Compound 2, pinocembrin 6-C-β-D-glucoside]
8 | 69.8 ± 2.2% | 16 ± 3.2 µM | OCC1(O)COC(Oc2cc(O)c3c(c2)OC(c2ccc(O)c(O)c2)C(O)C3)C1O (stereo not drawn) [Compound 6, catechin-7-O-β-apiofuranoside]
9 | 55.6 ± 0.7% | 23 ± 0.7 µM | COc1cc(C2Oc3c(OC)cc(CCCO)cc3C2CO)ccc1OC1OC(C)C(O)C(O)C1O (centres unmarked) [Compound 7, icariside E4]
10 | 70.7 ± 0.4% | 16.1 ± 3.2 µM | O=C1c2c(O)cc(O)cc2OC(c2cc(O)cc(O)c2)C1O (centres unmarked) [Compound 10, 3,5,7-trihydroxy-2–(3,5-dihydroxyphenyl) chroman-4-one]
